Molecules are shown by their SMILES.

The assay concerns the target human recombinant LSD1 protein (Homo sapiens (Human), UniProt O60341). Description: In vitro enzyme inhibition activity assay - LSD1 (Lance Ultra TR-FRET). Format: biochemical. The note with it: all compounds tested in the form of hydrochloride. The protocol:
The purpose of this experiment was to test the in vitro inhibitory activity of the compounds against LSD1. The human recombinant LSD1 protein used in the experiment was purchased from Active Motif, and the enzyme level activity testing assay of LSD1 was performed using the Lance Ultra LSD1 Histone H3 Lysine 4 Demethylase Assay Kit (PerkinElmer). Tris-buffer (50 mMTris-HCl, 50 mMNaCl, 0.01% Tween-20, 1 mM DTT, 10 μM FAD, 10% glycerol, pH 9.0) was first prepared, and after preparation, the LSD1 fractions required for test were placed in this buffer and incubated for one hour at room temperature; the fractions included 4 μL of substrate solution ([…] Bio-H3K4me2, 1-24aa), 4 μL of enzyme solution (4 nM LSD1), and 2 μL of inhibitor in a 384-well microplate. After these operations, another 5 μL of assay mixture containing Eu-labeled H3K4me0 antibody and ULight-Streptavidin anti-biotin protein was added to the system, after which the fluorescence intensity of the components to be tested was detected by using Envision (PerkinElmer) in TR-FRET mode (excitation wavelength of 320 nm, emission wavelength of 620 nm). The test was repeated a total of three times to minimize errors. The final IC50 data were calculated by the software GraphPad Prism 5, and finally the sigmoidal dose-response (variable slope) method was used to obtain the fitted curve.
The LSD1 inhibitory activities of representative compounds of the present application as well as the positive control compound CC90011 were provided in Table 2. All compounds were tested in the form of hydrochloride.
As to `COC1=CC=C(c2c(-c3ccc(C#N)c(F)c3)nc(N3CCC(N)CC3)n(C)c2=O)CC1F` (stereo not shown) [CC90011, reference compound], the IC50 is ≤ 30 nM.

As for `Cc1noc(C)c1-c1ccc2nc(N3CCC(N)CC3)nc(-c3ccc(C#N)c(F)c3)c2c1` [Compound 3, 4-(2-(4-aminopiperidin-1-yl)-6-(3,5-dimethylisoxazol-4-yl)quinazolin-4-yl)-2-fluorobenzonitrile], the IC50 lay in the range of 30 to 300 nM.

Turning to `Cc1ccccc1-c1ccc2nc(N3CCC(N)CC3)nc(-c3ccc(C#N)c(F)c3)c2c1` [Compound 6, 4-(2-(4-aminopiperidin-1-yl)-6-(o-methylphenyl)quinazolin-4-yl)-2-fluorobenzonitrile], the IC50 was 30 to 300 nM.

In the case of `Cc1cccc(-c2ccc3nc(N4CCC(N)CC4)nc(-c4ccc(C#N)c(F)c4)c3c2)c1` [Compound 8, 4-(2-(4-aminopiperidin-1-yl)-6-(m-methylphenyl)quinazolin-4-yl)-2-fluorobenzonitrile], the IC50 lay within 30 to 300 nM.

Regarding `Cn1ncc2cc(-c3ccc4nc(N5CCC(N)CC5)nc(-c5ccc(C#N)c(F)c5)c4c3)ccc21` [Compound 9, 4-(2-(4-aminopiperidin-1-yl)-6-(1-methyl-1H-indazol-5-yl)quinazolin-4-yl)-2-fluorobenzonitrile], the IC50 is 30 to 300 nM.

With `Cn1ncc2c(-c3ccc4nc(N5CCC(N)CC5)nc(-c5ccc(C#N)c(F)c5)c4c3)cccc21` [Compound 10, 4-(2-(4-aminopiperidin-1-yl)-6-(1-methyl-1H-indazol-4-yl)quinazolin-4-yl)-2-fluorobenzonitrile], the IC50 was in the range of 30 to 300 nM.

With `Cn1ncc2cccc(-c3ccc4nc(N5CCC(N)CC5)nc(-c5ccc(C#N)c(F)c5)c4c3)c21` [Compound 11, 4-(2-(4-aminopiperidin-1-yl)-6-(1-methyl-1H-indazol-7-yl)quinazolin-4-yl)-2-fluorobenzonitrile], the IC50 was ≤ 30 nM.

Take `Cc1cccc(C)c1-c1ccc2nc(N3CCC(N)CC3)nc(-c3ccc(C#N)c(F)c3)c2c1` [Compound 12, 4-(2-(4-Aminopiperidin-1-yl)-6-(2,6-dimethylphenyl)quinazolin-4-yl)-2-fluorobenzonitrile]: the concentration for half-maximal inhibition (IC50) was ≤ 30 nM.

Take `N#Cc1ccc(-c2nc(N3CCC(N)CC3)nc3ccc(-c4ccccc4OC(F)(F)F)cc23)cc1F` [Compound 13, 4-(2-(4-aminopiperidin-1-yl)-6-(2-(trifluoromethoxy)phenyl)quinazolin-4-yl)-2-fluorobenzonitrile]: the IC50 is 30 to 300 nM.

As to `N#Cc1ccc(-c2nc(N3CCC(N)CC3)nc3ccc(-c4ccccc4C(F)(F)F)cc23)cc1F` [Compound 14, 4-(2-(4-aminopiperidin-1-yl)-6-(2-(trifluoromethyl)phenyl)quinazolin-4-yl)-2-fluorobenzonitrile], the IC50 was ≤ 30 nM.

As to `N#Cc1ccc(-c2nc(N3CCC(N)CC3)nc3ccc(-c4ccccc4F)cc23)cc1F` [Compound 15, 4-(2-(4-aminopiperidin-1-yl)-6-(2-fluorophenyl)quinazolin-4-yl)-2-fluorobenzonitrile], the IC50 fell in the range of 30 to 300 nM.

Consider `N#Cc1ccc(-c2nc(N3CCC(N)CC3)nc3ccc(-c4ccccc4Cl)cc23)cc1F` [Compound 16, 4-(2-(4-aminopiperidin-1-yl)-6-(2-chlorophenyl)quinazolin-4-yl)-2-fluorobenzonitrile], for which the IC50 was ≤ 30 nM.

In the case of `N#Cc1ccc(-c2nc(N3CCC(N)CC3)nc3ccc(-c4cccc(F)c4F)cc23)cc1F` [Compound 17, 4-(2-(4-aminopiperidin-1-yl)-6-(2,3-difluorophenyl)quinazolin-4-yl)-2-fluorobenzonitrile], the 50% inhibitory concentration (IC50) was in the range of 30 to 300 nM.

For the compound `N#Cc1ccc(-c2nc(N3CCC(N)CC3)nc3ccc(-c4c(Cl)cccc4Cl)cc23)cc1F` [Compound 20, 4-(2-(4-aminopiperidin-1-yl)-6-(2,6-dichlorophenyl)quinazolin-4-yl)-2-fluorobenzonitrile], the IC50 is ≤ 30 nM.

Turning to `Cc1cccc(Cl)c1-c1ccc2nc(N3CCC(N)CC3)nc(-c3ccc(C#N)c(F)c3)c2c1` [Compound 21, 4-(2-(4-Aminopiperidin-1-yl)-6-(2-chloro-6-methylphenyl)quinazolin-4-yl)-2-fluorobenzonitrile], the IC50 is ≤ 30 nM.

As for `N#Cc1ccc(-c2nc(N3CCC(N)CC3)nc3ccc(-c4c(F)cccc4Cl)cc23)cc1F` [Compound 22, 4-(2-(4-Aminopiperidin-1-yl)-6-(2-chloro-6-fluorophenyl)quinazolin-4-yl)-2-fluorobenzonitrile], the IC50 is ≤ 30 nM.

For `N#Cc1ccc(-c2nc(N3CCC(N)CC3)nc3ccc(-c4cccc(F)c4C(F)(F)F)cc23)cc1F` [Compound 23, 4-(2-(4-Aminopiperidin-1-yl)-6-(3-fluoro-2-(trifluoromethyl)phenyl)quinazolin-4-yl)-2-fluorobenzonitrile], the IC50 is ≤ 30 nM.

For `COc1ccc(-c2ccc3nc(N4CCC(N)CC4)nc(-c4ccc(C#N)nc4)c3c2)cc1F` [Compound 24, 5-(2-(4-aminopiperidin-1-yl)-6-(3-fluoro-4-methoxyphenyl)quinazolin-4-yl)pyridinecarbonitrile], the IC50 was 30 to 300 nM.

As to `COc1ccc(-c2ccc3nc(N4CCC(N)CC4)nc(-c4ccc(C#N)cc4)c3c2)cc1F` [Compound 25, 4-(2-(4-aminopiperidin-1-yl)-6-(3-fluoro-4-methoxyphenyl)quinazolin-4-yl)benzonitrile], the IC50 fell in the range of 30 to 300 nM.

As for `COc1ccc(-c2ccc3nc(NCC4CCNC4)nc(-c4ccc(C#N)c(F)c4)c3c2)cc1F` (stereo not shown) [Compound 29, 2-Fluoro-4-(6-(3-fluoro-4-methoxyphenyl)-2-((pyrrolidin-3-ylmethyl)amino)quinazolin-4-yl)benzonitrile], the IC50 was in the range of 30 to 300 nM.

As for `Cc1ccccc1-c1ccc2nc(NCC3CCNC3)nc(-c3ccc(C#N)c(F)c3)c2c1` (stereo not shown) [Compound 34, 2-Fluoro-4-(2-((pyrrolidin-3-ylmethyl)amino)-6-(o-methylphenyl)quinazolin-4-yl)benzonitrile], the IC50 was ≤ 30 nM.

Take `COc1ccc(-c2ccc3nc(NC[C@H]4CCNC4)nc(-c4ccc(C#N)c(F)c4)c3c2)cc1F` [Compound 35, (S)-2-fluoro-4-(6-(3-fluoro-4-methoxyphenyl)-2-((pyrrolidin-3-ylmethyl)amino)quinazolin-4-yl)benzonitrile]: the IC50 is 30 to 300 nM.

With `COc1ccc(-c2ccc3nc(NC[C@@H]4CCNC4)nc(-c4ccc(C#N)c(F)c4)c3c2)cc1F` [Compound 36, (R)-2-fluoro-4-(6-(3-fluoro-4-methoxyphenyl)-2-((pyrrolidin-3-ylmethyl)amino)quinazolin-4-yl)benzonitrile], the IC50 lay within 30 to 300 nM.

As for `Cc1ccccc1-c1ccc2nc(NC[C@H]3CCNC3)nc(-c3ccc(C#N)c(F)c3)c2c1` [Compound 37, (S)-2-fluoro-4-(2-((pyrrolidin-3-ylmethyl)amino)-6-(o-methylphenyl)quinazolin-4-yl)benzonitrile], the IC50 lay within 30 to 300 nM.

On to `Cc1ccccc1-c1ccc2nc(NC[C@@H]3CCNC3)nc(-c3ccc(C#N)c(F)c3)c2c1` [Compound 38, (R)-2-fluoro-4-(2-((pyrrolidin-3-ylmethyl)amino)-6-(o-methylphenyl)quinazolin-4-yl)benzonitrile], for which the IC50 lay in the range of 30 to 300 nM.

With `N#Cc1ccc(-c2nc(NC[C@H]3CCNC3)nc3ccc(-c4ccccc4OC(F)(F)F)cc23)cc1F` [Compound 39, (S)-2-fluoro-4-(2-((pyrrolidin-3-ylmethyl)amino)-6-(2-(trifluoromethoxy)phenyl)quinazolin-4-yl)benzonitrile], the IC50 lay in the range of 30 to 300 nM.

For the compound `N#Cc1ccc(-c2nc(NC[C@H]3CCNC3)nc3ccc(-c4ccccc4F)cc23)cc1F` [Compound 41, (S)-2-fluoro-4-(2-((pyrrolidin-3-ylmethyl)amino)-6-(2-fluorophenyl)quinazolin-4-yl)-2-fluorobenzonitrile], the IC50 fell in the range of 30 to 300 nM.

Take `N#Cc1ccc(-c2nc(NC[C@H]3CCNC3)nc3ccc(-c4cccc(F)c4F)cc23)cc1F` [Compound 43, (S)-2-fluoro-4-(2-((pyrrolidin-3-ylmethyl)amino)-6-(2,3-difluorophenyl)quinazolin-4-yl)-2-fluorobenzonitrile]: the IC50 is 30 to 300 nM.

Turning to `Cc1cscc1-c1ccc2nc(NC[C@H]3CCNC3)nc(-c3ccc(C#N)c(F)c3)c2c1` [Compound 44, (S)-2-fluoro-4-(6-(4-methylthiophen-3-yl)-2-((pyrrolidin-3-ylmethyl)amino)quinazolin-4-yl)benzonitrile], the IC50 lay within 30 to 300 nM.

On to `Cc1cccc(C)c1-c1ccc2nc(NC[C@H]3CCNC3)nc(-c3ccc(C#N)c(F)c3)c2c1` [Compound 45, (S)-4-(6-(2,6-dimethylphenyl)-2-((pyrrolidin-3-ylmethyl)amino)quinazolin-4-yl)-2-fluorobenzonitrile], for which the IC50 is ≤ 30 nM.

For the compound `Cc1cc(C)c(-c2ccc3nc(NC[C@H]4CCNC4)nc(-c4ccc(C#N)c(F)c4)c3c2)c(C)c1` [Compound 46, (S)-4-(6-(2,4,6-trimethylphenyl)-2-((pyrrolidin-3-ylmethyl)amino)quinazolin-4-yl)-2-fluorobenzonitrile], the IC50 is ≤ 30 nM.
